We go through 29 molecules from patent US11369591B2, “Drug delivery from hydrogels” (Incept, LLC, priority 2015, dated 2022).

≈ marks a conversion by molar mass, not a printed value. Structures can show the parent of a compound that is named as a salt. Where only a bound is given, the exact number is not on record here.

By solubility is commonly meant the concentration that dissolves in the medium under given conditions. A high value points to a readily soluble substance.

In series [1] the test system is vitreous of a Male New Zealand white rabbit. The experiment in a line: Intravitreal injection of micronized axitinib suspension, histology after 1 month. It counts as in vivo. Particulars: for Inflammation around the injected material / Inflammation within the vitreous Chamber: semi-quantitative scale 0-5. The procedure:
50 μL of the 2% axitinib suspension was then drawn into a 100 μL luer lock Hamilton syringe using a 21G 1.5″ needle. The needle was swapped for a fresh 27G ½″ TW needle (Nipro). The 50 μL suspension was then injected at the 6 o'clock position within the vitreous of a Male New Zealand white rabbit. After 1 month, eyes were explanted and prepared for histology.
(§1) Two eyes were fixed (Davidson's), blocked, sectioned, mounted and stained for microscopical examination by a board certified veterinary pathologist. Eyes were sectioned according to the following scheme: A suture had been placed at the 12 o'clock position for orientation at harvest. Typically eyes were trimmed in half in the plane from 12 o'clock to 6 o'clock through the lens and optic nerve along the midline. This captures as many optic structures in one plane as is possible. The trimmed eyes were examined grossly and abnormalities noted. Each half of the globe trimmed was embedded in its own cassette. Cassette A is always the nasal half of the eye, and cassette B is always the temporal half of the eye. For each block 6 hematoxylin and eosin (H&E)-stained slides were prepared that were separated by 1000 microns (1 mm). Each slide contained 2 serial sections of eye on it. All slides were evaluated by a board-certified veterinary pathologist at Charter Preclinical Services. Tissues were scored on a semi-quantitative scale from 0-5 for any abnormalities.
Eyes were scored in several categories for signs of inflammation or other adverse findings. Inflammation scores were as follows:
1—Rare foci of change; minimal
2—Mild diffuse change or more pronounced focal change
3—Moderate diffuse change
5 μL of the 4% Axitinib suspension was then drawn into a 100 μL luer lock Hamilton syringe using a 21G 1.5″ needle. The needle was swapped for a fresh 27G ½″ TW needle (Nipro). The 50 μL suspension was then injected at the 6 o'clock position within the vitreous of a Male New Zealand white rabbit. After 1 month, eyes were explanted and prepared for histology.
as §1, with “(Davidson's fixative solution),” for “(Davidson's),”
Eyes were scored in several categories for signs of inflammation or other adverse findings as described above.
50 μL of the 8% axitinib suspension was then drawn into a 100 μL luer lock Hamilton syringe using a 21G 1.5″ needle. The needle was swapped for a fresh 27G ½″ TW Nipro needle. The 50 μL suspension was then injected at the 6 o'clock position within the vitreous of both eyes in Male New Zealand white rabbit. After 1 month, eyes were explanted and prepared for histology.

For series [2] the following is noted: experimental water solubility when available in the scientific literature; cited from earlier work.
The nature of series [3]: Steroid solubility studies in dissolution media (PBS, pH 6.3), Example 10. It counts as physicochemical. The settings on record: for solubility at 68 h: pH 6.3, aqueous buffer, thermodynamic from solid. The procedure: Solubility of the steroid candidates was assessed in dissolution media (PBS, pH 6.3) at ambient temperatures for 68 hours. UV detection of soluble steroid was determined relative to a standard curve.

The conditions of series [4]: statement in words; cited from earlier work.

Regarding `CNC(=O)c1ccccc1Sc1ccc2c(/C=C/c3ccccn3)n[nH]c2c1` [Axitinib], the “Other adverse findings (retina, sclera, lens, etc.)” value in series [1] (100 μg) is reported as “none”; in series [1] (200 μg), “none”; in series [1] (400 ug, both eyes), “none”. The “Inflammation around the injected material” value came to 0.04±0.29 in series [1] (100 μg); 0.08±0.37 in series [1] (200 μg); 0.14±0.35 in series [1] (400 ug, both eyes). The “Inflammation within the vitreous Chamber” value stood at 0.0±0.0 in series [1] (100 μg); 0.14±0.35 in series [1] (200 μg); 0.14±0.35 in series [1] (400 ug, both eyes). Besides, the “Experimental Solubility” value in series [2] was 1 µg/mL.

For `CN1CCCC(n2nc(Cc3ccc(Cl)cc3)c3ccccc3c2=O)CC1` (centres unmarked) [Azelastine Base], the “Experimental Solubility” value in series [2] is 50 µg/mL. Regarding `CN1CCCC(n2nc(Cc3ccc(Cl)cc3)c3ccccc3c2=O)CC1.O=C(O)c1cc2ccccc2c(Cc2c(O)c(C(=O)O)cc3ccccc23)c1O` [Azelastine Embonate], the “Experimental Solubility” value in series [2] was 15 µg/mL. In the case of `CC[C@H]1OC(=O)[C@H](C)[C@@H](O[C@H]2C[C@@](C)(OC)[C@@H](O)[C@H](C)O2)[C@H](C)[C@@H](O[C@@H]2O[C@H](C)C[C@H](N(C)C)[C@H]2O)[C@](C)(O)C[C@@H](C)CN(C)[C@H](C)[C@@H](O)[C@]1(C)O` [Azithromycin], in series [2], the “Experimental Solubility” value is 69 µg/mL.

Consider `N[C@@H]1CCCCN(c2c(F)cc3c(=O)c(C(=O)O)cn(C4CC4)c3c2Cl)C1` [Besifloxacin Base], for which, in series [2], the “Experimental Solubility” value was 90 µg/mL. As to `C[C@H]1C[C@H]2[C@@H]3CCC4=CC(=O)C=C[C@]4(C)[C@@]3(F)[C@@H](O)C[C@]2(C)[C@@]1(O)C(=O)COP(=O)([O-])[O-].[Na+].[Na+]` [Betamethasone Sodium Phosphate], the “Max Solubility in PBS, pH 6.3” value in series [3] (PBS pH 6.3, ambient temperatures, 68 hours, UV detection) is listed as > 100,000 μg/mL. For the same molecule, in series [3] (printed beside the Example 10 value), the “Solubility in water, descriptive” value is on record as “freely soluble”. Further, the “Experimental Solubility” value in series [2] was 67 µg/mL. Consider `Nc1c(CC(=O)O)cccc1C(=O)c1ccc(Br)cc1` [Bromfenac], for which, in series [2], the “Experimental Solubility” value was 53,000 μg/mL. Regarding `CCCC1O[C@@H]2C[C@H]3[C@@H]4CCC5=CC(=O)C=C[C@]5(C)[C@H]4[C@@H](O)C[C@]3(C)[C@]2(C(=O)CO)O1` (some centres unmarked) [Budesonide], the concentration in solution in series [3] (solubility at 68 h) was 0.03 mg/mL (≈ 69.7 µM). The “Experimental Solubility” value in series [2] was 24 µg/mL. As for `C[C@@H]1C[C@H]2[C@@H]3CCC4=CC(=O)C=C[C@]4(C)[C@@]3(F)[C@@H](O)C[C@]2(C)[C@@]1(O)C(=O)CO` [Dexamethasone alcohol], in series [2], the “Experimental Solubility” value was 89 µg/mL. As for `O=C(O)Cc1ccccc1Nc1c(Cl)cccc1Cl` [Diclofenac], the “Experimental Solubility” value in series [2] was 600 µg/mL.

As for `CO[C@H]1C[C@@H]2CC[C@@H](C)[C@@](O)(O2)C(=O)C(=O)N2CCCC[C@H]2C(=O)O[C@H]([C@H](C)C[C@@H]2CC[C@@H](OCCO)[C@H](OC)C2)CC(=O)[C@H](C)/C=C(\C)[C@@H](O)[C@@H](OC)C(=O)[C@H](C)C[C@H](C)/C=C/C=C/C=C/1C` [Everolimus], the “Experimental Solubility” value in series [2] was 10 µg/mL. The molecule `CC1(C)O[C@@H]2C[C@H]3[C@@H]4C[C@H](F)C5=CC(=O)C=C[C@]5(C)[C@H]4[C@@H](O)C[C@]3(C)[C@]2(C(=O)CO)O1` [Flunisolide, Anhydrous, USP, Flunisolide] returned a solubility at 68 h in series [3] of 0.09 mg/mL (≈ 207 µM). Turning to `CC(C(=O)O)c1ccc(-c2ccccc2)c(F)c1` (centres unmarked) [Flurbiprofen Sodium], in series [2], the “Experimental Solubility” value was 61 µg/mL. Turning to `CCC(=O)O[C@]1(C(=O)SCF)[C@H](C)C[C@H]2[C@@H]3C[C@H](F)C4=CC(=O)C=C[C@]4(C)[C@@]3(F)[C@@H](O)C[C@@]21C` [Fluticasone Propionate], in series [2], the “Experimental Solubility” value is 1 µg/mL. Consider `COc1c(N2CCNC(C)C2)c(F)cc2c(=O)c(C(=O)O)cn(C3CC3)c12` (centres unmarked) [Gatifloxacin], for which the “Experimental Solubility” value in series [2] was 60,000 μg/mL. `CN1CCC(=C2c3ccccc3CC(=O)c3sccc32)CC1` [Ketotifen base]: the “Experimental Solubility” value in series [2] was 15 µg/mL.

Consider `CN1CCC(=C2c3ccccc3CC(=O)c3sccc32)CC1` [Ketotifen fumarate], for which the “Experimental Solubility” value in series [2] was 10,000 μg/mL. On to `CC(C)OC(=O)CCC/C=C\C[C@@H]1[C@@H](CC[C@@H](O)CCc2ccccc2)[C@H](O)C[C@@H]1O` [Latanoprost], for which the “solubility in aqueous solutions” value in series [4] was “relatively low solubility”. Regarding `CCOC(=O)O[C@]1(C(=O)OCCl)CC[C@H]2[C@@H]3CCC4=CC(=O)C=C[C@]4(C)[C@H]3[C@@H](O)C[C@@]21C` [Loteprednol etabonate], the “Experimental Solubility” value in series [2] was 5 µg/mL. `C[C@@H]1C[C@H]2[C@@H]3CCC4=CC(=O)C=C[C@]4(C)[C@@]3(Cl)[C@@H](O)C[C@]2(C)[C@@]1(OC(=O)c1ccco1)C(=O)CCl` [Mometasone furoate]: in series [2], the “Experimental Solubility” value is 20 µg/mL. Consider `CO[C@H]1C[C@@H]2CC[C@@H](C)[C@@](O)(O2)C(=O)C(=O)N2CCCC[C@H]2C(=O)O[C@H]([C@H](C)C[C@@H]2CC[C@@H](O)[C@H](OC)C2)CC(=O)[C@H](C)/C=C(\C)[C@@H](O)[C@@H](OC)C(=O)[C@H](C)C[C@H](C)/C=C/C=C/C=C/1C` [Sirolimus], for which, in series [2], the “Experimental Solubility” value is less than 100 µg/mL. `CCN(CC)CCNC(=O)c1c(C)[nH]c(/C=C2\C(=O)Nc3ccc(F)cc32)c1C` [Sunitinib Malate]: the “Experimental Solubility” value in series [2] is on record as 25,000 μg/mL. Take `C=CC[C@@H]1/C=C(\C)C[C@H](C)C[C@H](OC)[C@H]2O[C@@](O)(C(=O)C(=O)N3CCCC[C@H]3C(=O)O[C@H](/C(C)=C/[C@@H]3CC[C@@H](O)[C@H](OC)C3)[C@H](C)[C@@H](O)CC1=O)[C@H](C)C[C@@H]2OC` [Tacrolimus]: in series [2], the “Experimental Solubility” value was 8 µg/mL. Take `CC(C)(C)NC[C@H](O)COc1nsnc1N1CCOCC1` [Timolol Maleate]: in series [2], the “Experimental Solubility” value is on record as 2,800 μg/mL. For the molecule `CC(C)OC(=O)CCC/C=C\C[C@@H]1[C@@H](/C=C/[C@@H](O)COc2cccc(C(F)(F)F)c2)[C@H](O)C[C@@H]1O` [Travoprost], the “Experimental Solubility” value in series [2] was 44 µg/mL.

`CC1(C)O[C@@H]2C[C@H]3[C@@H]4CCC5=CC(=O)C=C[C@]5(C)[C@@]4(F)[C@@H](O)C[C@]3(C)[C@]2(C(=O)CO)O1` [Triamcinolone Acetonide] registered a solubility at 68 h in series [3] of 0.02 mg/mL (≈ 46 µM).

As for `O=c1[nH]c(=O)n([C@H]2C[C@H](O)[C@@H](CO)O2)cc1C(F)(F)F` [Trifluridine], the “Experimental Solubility” value in series [2] is recorded as 1,500 μg/mL. With `COc1cc2c(Nc3ccc(Br)cc3F)ncnc2cc1OCC1CCN(C)CC1` [Vandetanib (ZD6474), Vandetanib], in series [2], the “Experimental Solubility” value was 8 µg/mL. For the molecule Aflibercept, the “Experimental Solubility” value in series [2] is given as >100,000 μg/mL.
